Measured values as given in PMC4996684 (Bioorganic & medicinal chemistry letters, 2016).
Where two headings read alike, the source gives them in different places.

Molecular target: T1, human M5 mAChR (Homo sapiens, UniProt P08912)
T1 sequence (P08912 1-532): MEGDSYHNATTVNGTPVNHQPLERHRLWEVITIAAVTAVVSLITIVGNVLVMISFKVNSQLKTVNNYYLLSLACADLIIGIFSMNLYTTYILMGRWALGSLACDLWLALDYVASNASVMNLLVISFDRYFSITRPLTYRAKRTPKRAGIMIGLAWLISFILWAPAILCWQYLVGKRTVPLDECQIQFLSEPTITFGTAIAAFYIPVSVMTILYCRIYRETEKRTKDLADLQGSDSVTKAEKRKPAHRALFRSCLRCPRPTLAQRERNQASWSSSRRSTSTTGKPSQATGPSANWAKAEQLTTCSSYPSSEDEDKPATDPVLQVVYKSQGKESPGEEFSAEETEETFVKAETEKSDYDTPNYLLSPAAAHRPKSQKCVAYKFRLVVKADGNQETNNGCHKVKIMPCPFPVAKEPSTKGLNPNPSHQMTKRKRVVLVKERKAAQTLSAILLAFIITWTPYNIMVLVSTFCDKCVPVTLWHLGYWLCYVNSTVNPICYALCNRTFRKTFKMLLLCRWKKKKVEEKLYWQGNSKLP
Assay: hM5 functional inhibition assay
Assay type: cell-based
Conditions: for hM5 Percent inhibition (Table 3): single point at 10 μM, EC80 of ACh, average of three determinations

Row | Structure (SMILES) | inhibition at 10 µM (read-out: hM5 Percent inhibition (Table 2)) | inhibition at 10 µM (read-out: hM5 Percent inhibition (Table 3)) | inhibition at 10 µM (read-out: maximum M5 inhibition, single point M5 inhibition assay) | activity in the 10 μM single point assay (resynthesized 4, 10 μM) | hM5 Percent inhibition (Table 3)
1 | Cc1nn(C)c(C)c1S(=O)(=O)N1CCC2(CC1)OCCS2 [Compound 4, 8-((1,3,5-trimethyl-1H-pyrazol-4-yl)sulfonyl)-1-oxa-4-thia-8-azaspiro[4,5]decane] | 84% | 88% | 50% | 88% | 
2 | Cn1cnc(S(=O)(=O)N2CCC3(CC2)OCCS3)c1 [Compound 9h] |  |  |  |  | Inactive
3 | Cc1nn(C)cc1S(=O)(=O)N1CCC2(CC1)OCCS2 [Compound 9b] |  |  |  |  | Inactive
